Series [1] addresses T1, M1 receptor (rat cortex) (Rattus norvegicus, UniProt P08482).
T1 construct: from tissue; host or cells: rat brain cortex
T1 sequence (P08482 1-460): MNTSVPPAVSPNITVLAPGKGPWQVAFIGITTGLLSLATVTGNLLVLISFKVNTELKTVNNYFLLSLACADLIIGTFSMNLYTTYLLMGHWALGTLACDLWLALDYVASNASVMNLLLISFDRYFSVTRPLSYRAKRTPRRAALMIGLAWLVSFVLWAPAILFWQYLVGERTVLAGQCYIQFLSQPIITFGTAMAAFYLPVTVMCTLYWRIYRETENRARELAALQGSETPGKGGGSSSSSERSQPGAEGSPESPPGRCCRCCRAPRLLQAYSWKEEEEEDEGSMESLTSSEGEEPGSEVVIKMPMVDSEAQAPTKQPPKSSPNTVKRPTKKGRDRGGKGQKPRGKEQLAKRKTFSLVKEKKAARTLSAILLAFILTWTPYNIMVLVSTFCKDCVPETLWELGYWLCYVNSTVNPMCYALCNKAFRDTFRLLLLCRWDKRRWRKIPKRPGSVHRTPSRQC
Put plainly: M1 [3H]pirenzepine binding in rat cortex. Particulars: for inhibition at 1 µM: read-out: M1 3H PZ binding in rat cortex at 1 μM, % inhibition.

The target in series [2] is T2, M2 receptor (rat cerebellum) (Rattus norvegicus, UniProt P10980).
T2 sequence (P10980 1-466): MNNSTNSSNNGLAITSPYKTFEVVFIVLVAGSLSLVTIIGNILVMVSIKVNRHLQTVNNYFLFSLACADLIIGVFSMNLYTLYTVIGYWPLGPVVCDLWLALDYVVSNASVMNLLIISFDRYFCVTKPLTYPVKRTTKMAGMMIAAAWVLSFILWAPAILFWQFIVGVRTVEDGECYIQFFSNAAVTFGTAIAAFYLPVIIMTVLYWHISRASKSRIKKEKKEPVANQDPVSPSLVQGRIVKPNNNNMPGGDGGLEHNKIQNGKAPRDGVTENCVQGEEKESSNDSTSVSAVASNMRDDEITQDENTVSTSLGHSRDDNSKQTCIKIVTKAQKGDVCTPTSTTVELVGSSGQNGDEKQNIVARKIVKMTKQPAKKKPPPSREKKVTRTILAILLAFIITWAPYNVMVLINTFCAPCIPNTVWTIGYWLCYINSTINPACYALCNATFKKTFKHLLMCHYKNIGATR
Put plainly: biochemical. Particulars: read-out: M2 3H QNB binding in rat cerebellum, IC50.

Series [3] deals with Male CFW mice (scopolamine-induced hyperactivity). The experiment in a line: Reversal of scopolamine-induced hyperactivity in mouse swim tank. Type of series: in vivo. Particulars: ip, 5 min, 0.3 mg/kg scopolamine.HBr, swim distance, read-out: minimum effective dose (MED), reversing the hyperactivity of scopolamine treated animals. The procedure:
The compound of Example 1 was also tested in accordance with the procedure of Symons et al, Soc. Neuroscience Abstracts 12:2, 897 (1986) in which Male CFW mice, 25 to 35 grams in weight are given the test compound in suitable vehicle plus 0.3 mg/kg scopoolamine.HBr in suitable vehicle, i.p.(3 groups of 12 animals each) or vehicle alone (1 group of 12 animals ) or vehicle plus scopolamine. HBr (1 group of 12 animals). The rates are placed in a swim tank, individually, containing 10 cm H2 O for a period of 5 minutes and the distance each animal swims is recorded.

In series [4] the test system is Sprague-Dawley male rats (scopolamine-disrupted performance). Put plainly: Eight arm radial maze, reversal of scopolamine disrupted rat performance. Particulars: ip, scopolamine HBr 0.3 mg/kg s.c., test compound i.p., read-out: minimum effective dose (MED), reversal of scopolamine disrupted rat performance. It is filed as in vivo. As for the experimental part:
The compound of Example 1 was also tested in the eight arm radial maze test procedure in which Sprague-Dawley male rats at 85% of their free feeding weight are trained to obtain two food pellets from food cups placed at the ends of four of the eight arms radiating from a circular central area of the maze, in a five minute period. After training to a level of error (return to a previously entered arm is error) equal to or less than 2, the rats performance is disrupted with scopolamine HBr (0.3 mg/kg, s.c.) and test compound dosage (i.p.). The number of errors are then determined and compared with control receiving scopolamine alone.

The test system of series [5] is 5-HT1A serotonin receptor. The experiment in a line: Serotonin 5-HT1A receptor binding, displacement of [3H]8-OHDPAT. An excerpt: High affinity for the serotonin 5-HT1A receptor was established by testing the claimed compound's ability to displace ^3 H!8-OHDPAT (dipropylaminotetralin) from the 5-HT1A serotonin receptor following the procedure of Hall et al., J. Neurochem. 44, 1685 (1985). […] The anxiolytic activity of buspirone is believed to be, at least partially, due to its 5-HT1A receptor affinity (Vander Maclen et al., Eur. J. Pharmacol. 1986, 129 (1-2) 133-130).
A general note: Displacement assays read how much labelled ligand stays bound in the presence of the test substance.

Series [6] has as its target T3, dopamine D-2 receptor (Rattus norvegicus, UniProt P61169).
T3 construct: from tissue; host or cells: limbic brain tissue (homogenate)
The experiment in a line: Dopamine D-2 receptor binding, 3H-spiroperidol, limbic brain tissue. As for the experimental part:
High affinity for the dopamine D-2 receptor was established by the standard experimental test procedure of Fields, et al., Brain Res., 136, 578 (1977) and Yamamura et al., eds., Neurotransmitter Receptor Binding, Raven Press, N.Y. (1978) wherein homogenized limbic brain tissue is incubated with ^3 H-spiroperidol and various concentrations of test compound, filtered and washed and shaken with Hydrofluor scintillation cocktail (National Diagnostics) and counted in a Packard 460 CD scintillation counter.

The test system of series [7] is patients with mild to moderate Alzheimer's Disease. Particulars: cited from earlier work; for memory improvement in patients (in words): mild to moderate Alzheimer's Disease.
For series [8] the following is noted: in vivo; cited from earlier work.
In series [9] the test system is 5-HT1A serotonin receptor. Particulars: standard for anxiolytic activity; cited from earlier work.

For orientation: pIC50 means −log10 of the IC50, conventionally taken in molar units. The inhibition is the relative decrease from the control value, in per cent.

pIC50: −log10 of the molar value. Where two headings read alike, the source gives them in different places.

T3 sequence (P61169 whole entry): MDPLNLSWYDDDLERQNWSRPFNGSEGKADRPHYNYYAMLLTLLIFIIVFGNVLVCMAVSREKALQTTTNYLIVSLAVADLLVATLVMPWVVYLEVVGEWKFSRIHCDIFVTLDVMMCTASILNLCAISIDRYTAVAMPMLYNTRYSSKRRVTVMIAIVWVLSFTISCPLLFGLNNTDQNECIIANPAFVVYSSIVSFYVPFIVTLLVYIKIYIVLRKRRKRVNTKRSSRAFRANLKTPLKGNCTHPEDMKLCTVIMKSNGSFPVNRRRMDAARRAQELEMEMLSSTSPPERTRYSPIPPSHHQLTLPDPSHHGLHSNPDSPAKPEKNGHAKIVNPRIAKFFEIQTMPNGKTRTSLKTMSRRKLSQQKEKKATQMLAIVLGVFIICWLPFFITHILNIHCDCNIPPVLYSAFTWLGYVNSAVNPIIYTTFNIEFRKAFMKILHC

Consider `CN(C)CCOC(=O)c1csc(NC(=O)c2cc(C(C)(C)C)c(O)c(C(C)(C)C)c2)n1` [Example 1, 2-3.5.-Bis(1.1-dimethylethyl)-4-hydroxybenzoyl!amino!-4-thiazolecarboxylic acid 2-(dimethylamino)ethyl ester], for which the pIC50 in series [1] (rat cortex, [3H]pirenzepine, read-out: M1 3H PZ binding in rat cortex, IC50) was 7.27; in series [2] it was 5.47. For the same compound, the minimal effective dose in series [3] and in series [4] was 3 mg/kg in each case.
In the case of `CN(C)CCNC(=O)c1csc(NC(=O)c2cc(C(C)(C)C)c(O)c(C(C)(C)C)c2)n1` [Example 2, 2-3,5,-Bis(1.1-dimethylethyl)-4-hydroxybenzoyl!amino!-N-2-(dimethylamino)ethyl!-4-thiazolecarboxamide], the inhibition at 1 µM in series [1] (1 μM, rat cortex, [3H]pirenzepine) came to 98.6%.
On to `CC(C)(C)c1cc(C(=O)Nc2nc(C(=O)NCCN3CC4CCC(CC4)C3)cs2)cc(C(C)(C)C)c1O` [Example 3], for which the inhibition at 1 µM in [1] amounted to 70.5%.
Turning to `CC(C)(C)c1cc(C(=O)Nc2nc(C(=O)OCCN3CC4CCC(CC4)C3)cs2)cc(C(C)(C)C)c1O` [Example 4, 2-3.5-Bis(1.1-dimethylethyl)-4-hydroxybenzoyl!amino !-4-thiazolecarboxylic acid 2-(3-azabicyclo 3.2.2.!non-3-yl)ethyl ester], the inhibition at 1 µM in [1] came to 90.6%.
On to `CC(C)(C)c1cc(C(=O)Nc2nc(C(=O)NCCCN3CC4CCC(CC4)C3)cs2)cc(C(C)(C)C)c1O` [Example 5, N-3-(3-Azabicyclo 3.2.2!non-3-yl)propyl-2-3.5-bis(1.1-dimethylethyl)-4-hydroxybenzoyl!amino!-4-thiazolecarboxamide], for which the inhibition at 1 µM in [1] stood at 78%.
Regarding `CC(C)(C)c1cc(C(=O)Nc2nc(C(=O)NCCCCN3CC4CCC(CC4)C3)cs2)cc(C(C)(C)C)c1O` [Example 6, N-4-(3-Azabicyclo 3.2.21non-3-yl)butyl!-2-3,5-bis(1,1-dimethylethyl)-4-hydroxybenzoyl!amino!-4-thiazolecarboxamide], in series [1], the inhibition at 1 µM came out at 86%.
Still for that read-out and setting: the same measure for `CC(C)(C)c1cc(C(=O)Nc2nc(C(=O)NC3CN4CCC3CC4)cs2)cc(C(C)(C)C)c1O` (stereo not drawn) [Example 7]: 104%; for `O=C(Nc1nc(C(=O)NC2CN3CCC2CC3)cs1)c1ccc(OCc2ccccc2)cc1` (stereo not drawn) [Example 8]: 85.8%.
For the compound `O=C(Nc1nc(C(=O)NCCCCN2CC3CCC(CC3)C2)cs1)c1ccc(OCc2ccccc2)cc1` [Example 9], the inhibition at 1 µM in series [1] stood at 62%.
Still for that read-out and setting: the same measure for `O=C(Nc1nc(C(=O)NCCCN2CC3CCC(CC3)C2)cs1)c1ccc(O)cc1` [Example 10, N-3-(3- Azabicyclo 3.2.2!non-3-yl)propyl-2-4-hydroxybenzoyl!amino-4-thiazolecarboxamide]: 58.7%; for `O=C(Nc1nc(C(=O)NCCCCN2CC3CCC(CC3)C2)cs1)c1ccc(O)cc1` [Example 11, N-4-(3-Azabicyclo 3.2.2!non-3-yl)butyl-2-4-hydroxybenzoyl!amino!-4-thiazolecarboxamide]: 63.9%.
Take `O=C(Cc1csc(NC(=O)c2ccc(F)cc2)n1)NCCCCN1CC2CCC(CC2)C1` [Example 12, N-4-(3-Azabicyclo 3.2.2!non-3-yl)butyl-2-(4-fluorobenzoyl)amino!-4-thiazoleacetamide]: in series [1], the inhibition at 1 µM is 57%.
Consider `COc1ccccc1N1CCN(CCCOC(=O)Cc2csc(NC(=O)c3ccc(F)cc3)n2)CC1` [Example 13, 2-(4-Fluorobenzoyl)amino!-4-thiazoleacetic acid 3-4-(2-methoxyphenyl)-1-piperazinyl!propyl ester], for which the “5-HT1A Binding (% Inhibition at 1 μM)” value in series [5] turned out to be 100%. Moreover, the inhibition at 1 µM in series [6] is 81%.
For `COc1ccccc1N1CCN(CCCOC(=O)Cc2csc(NC(=O)c3cc(C(C)(C)C)c(O)c(C(C)(C)C)c3)n2)CC1` [Example 14, 2-3,5-Bis(1,1-dimethylethyl)-4-hydroxyphenyl!carbonyl!amino!-4-thiazoleacetic acid 3-4-(2-methoxyphenyl)-1-piperazinyl!propyl ester] the same measures were 89% and 91%.
Take `COc1ccccc1N1CCN(CCOC(=O)Cc2csc(NC(=O)c3cc(C(C)(C)C)c(O)c(C(C)(C)C)c3)n2)CC1` [Example 15]: in series [6], the inhibition at 1 µM turned out to be 51%.
On the same count and under the same terms, the same measure for `O=C(Cc1csc(NC(=O)c2ccc(F)cc2)n1)OCCN1CCN(c2ncccn2)CC1` [Example 16, 2-(4-Fluorobenzoyl)amino!-4-thiazoleacetic acid 2-4-(2-pyrimidinyl)-1-piperazinyl!ethyl ester]: 34%.
With `CC(C)(C)c1cc(C(=O)Nc2nc(CC(=O)NCCN3CCN(c4ncccn4)CC3)cs2)cc(C(C)(C)C)c1O` [Example 17], in [6] (0.1 μM), the inhibition at 0.1 µM came out at 5%.
In the case of `COC(=O)C1=CCCN(C)C1` [arecoline], the “memory improvement in patients (in words)” value in [7] is on record as “memory improvement”. Moreover, the “half-life (in words)” value in series [8] is “short half-life”.
For `O=C1CC2(CCCC2)CC(=O)N1CCCCN1CCN(c2ncccn2)CC1` [buspirone], in series [9], the “5-HT1A receptor affinity (in words)” value is recorded as “potent affinity”.
In the case of `Nc1c2c(nc3ccccc13)CCCC2` [tacrine], the “adverse side effects (in words)” value in [7] (especially at the higher doses where it is most effective) was “adverse side effects”. Further, the “memory improvement in patients (in words)” value in series [7] is “improvement in memory”.
